Key:
THP-1.MR1 cells = assay: Cell surface MR1 quantification by flow cytometry, THP-1.MR1; format: cell-based; conditions: THP-1.MR1, 3 h
Procedure: Next, we investigated whether these RF catabolites can impact MR1 cell surface expression in both MR1-transduced B cell lymphoblastoid (C1R.MR1) and monocytic (THP-1.MR1) cell lines (Fig. 2). Here, the cells were pulsed with 1–200 μM of RF or the RF catabolites, and the cell surface levels of MR1 were quantified by flow cytometry ([Awad et al., 2020a]; [Keller et al., 2017]). Cell viability was unaffected, even at highest concentrations of the catabolites, as depicted in Fig. S2A. […] No impact on the MR1 surface level was observed when the parental C1R cells were incubated with these RF catabolites, probably due to the low basal surface MR1 level whose further reduction becomes undetectable by the anti-MR1 antibody (Fig. S2B). The MR1 downregulation seen in C1R.MR1 cells was specific to MR1 as the level of HLA-A*02:01 was not affected after pulsing C1R-A2 with the ligands (Fig. S2C). […]
The level of MR1 expressed on the cell surface was measured after the exposure to the investigated ligands as previously described ([Awad et al., 2020a]; [Wang et al., 2022a]). […] The PE fluorescence intensity reflects the surface MR1 level. The data was acquired with an LSRFortessa X-20 (BD Biosciences) and Diva software (BD Biosciences) and analyzed using FlowJo software (BD Biosciences).

hMR1^R9H = target: T1, hMR1^R9H (Homo sapiens, UniProt Q95460, R31H); assay: In vitro refolding of MR1 R9H mutant with ligand; format: binding
T1 construct: plasmids encoding for the extracellular domains of MR1, β2m, and the AF-7 TCRα and TCRβ chains; made in house; host or cells: Escherichia coli BL21(DE3), inclusion bodies
Source text: We then tested the effect of the RF catabolites on the expression of two mutant versions of MR1 termed MR1^R9H ([Howson et al., 2020]) and MR1^K43A ([Reantragoon et al., 2013]). First, we tested the MR1^R9H mutant ([Howson et al., 2020]) which represents a rare, natural human polymorph. […] When C1R. […] Next, we tested sought to understand how the previously characterised Lys43A mutation affects ligand binding. […] While this is in line with the ability of these ligands to bind MR1, the reason for MR1^K43A cell surface accumulation is less clear. The most likely explanation is that these ligands bind ER-resident MR1^K43A, in line with our data using wild-type MR1; however, because the K43A mutation results in spontaneous MR1 surface egress, the presence of these stabilising ligands promotes enhanced trafficking and/or retention at the cell surface. We cannot rule out however that the ligands may also bind directly to surface MR1^K43A and slow down the recycling from cell surface.
Escherichia coli BL21(DE3) cells were transformed with plasmids encoding for the extracellular domains of MR1, β2m, and the AF-7 TCRα and TCRβ chains ([Kjer-Nielsen et al., 2012]; [Patel et al., 2013]; [Wang et al., 2022a]). The proteins were then expressed, and the inclusion bodies were purified, cleaned, and used for refolding. […]

refolding with hMR1^R9H in solution (hMR1^R9H) | Compound | MR1 cell surface expression (THP-1.MR1 cells)
– | Cc1cc2nc3c(=O)[nH]c(=O)nc-3n(C)c2cc1C [Lumiflavin] | downregulated MR1
did not refold | Cc1cc2nc3[nH]c(=O)[nH]c(=O)c3nc2cc1C [Lumichrome, 7,8-dimethylalloxazine] | –

Reference: publication doi:10.1101/2025.07.20.665728 (bioRxiv, 2025)
